How the values were obtained:
human PTH1R = target: T1, human PTH1R (Homo sapiens, UniProt Q03431); assay: In vitro cAMP signal activity via the human PTH1R (HKRK-B7 cells); format: cell-based; settings: concentration at 20% cAMP signaling activity, human PTH(1-34) at 100 nM = 100%
T1 construct: expressed in transfected cells; host or cells: HKRK-B7 (LLC-PK1 porcine kidney cells stably expressing human PTH1R)
T1 sequence (Q03431 27-593): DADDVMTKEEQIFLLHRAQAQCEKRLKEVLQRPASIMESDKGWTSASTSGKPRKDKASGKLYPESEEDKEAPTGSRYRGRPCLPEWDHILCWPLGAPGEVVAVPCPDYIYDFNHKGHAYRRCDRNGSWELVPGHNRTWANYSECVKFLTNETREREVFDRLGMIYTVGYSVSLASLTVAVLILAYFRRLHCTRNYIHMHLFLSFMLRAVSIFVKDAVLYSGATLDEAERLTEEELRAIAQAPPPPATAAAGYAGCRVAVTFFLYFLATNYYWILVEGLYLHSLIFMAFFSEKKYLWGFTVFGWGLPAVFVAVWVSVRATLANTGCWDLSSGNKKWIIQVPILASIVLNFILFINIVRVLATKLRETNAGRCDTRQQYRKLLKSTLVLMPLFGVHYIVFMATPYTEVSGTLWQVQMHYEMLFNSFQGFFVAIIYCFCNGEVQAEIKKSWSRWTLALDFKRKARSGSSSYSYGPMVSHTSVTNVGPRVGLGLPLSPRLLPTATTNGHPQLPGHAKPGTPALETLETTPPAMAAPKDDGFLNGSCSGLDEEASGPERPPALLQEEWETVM
Description: Human PTH(1-34) and calcitonin were purchased from Peptide Institute, Inc. (Osaka, Japan), dissolved in 10 mM acetic acid to 1 mM and stored in a −80° C. freezer.
Cells were cultured in Dulbecco's modified Eagle's medium (DMEM) supplemented with 10% fetal bovine serum (Hyclone), 100 units/ml penicillin G and 100 μg/ml streptomycin sulfate (Invitrogen Corp) at 37° C. in a humidified atmosphere containing 5% CO2.
cAMP signal transduction analysis utilized LLC-PK1 cells not expressing the PTH1R, and HKRK-B7 cells, that is, LLC-PK1 cells overexpressing the human PTH1R at 9.5×10^5 receptors/cell (Takasu et al., J. Bone. Miner. Res. 14:11-20, 1999).
HKRK-B7 or LLC-PK1 cells were seeded into a 96-well plate at 1×10^5 cells/well and incubated overnight. On the following day, 50 μl of cAMP assay buffer (DMEM, 2 mM IBMX, 0.2 mg/ml bovine serum albumin, 35 mM Hepes-NaOH, pH 7.4) containing human PTH(1-34) or each compound was added and the plate was placed in a 37° C. incubator. The cells were incubated for 20 minutes. After removing the medium, the cells were washed with 100 μl of cAMP assay buffer once. The plate was placed on dry ice powder to freeze the cells and then removed from the dry ice. The cells were lysed with 40 μl of 50 mM HCl and frozen again on dry ice. The amount of intracellular cAMP produced was measured using a commercially available cAMP EIA kit (Biotrack cAMP EIA system, GE health care).
Analyses were performed using a variable gradient S-shaped dose-response curve equation.

rat PTH1R = target: T2, rat PTH1R (Rattus norvegicus, UniProt P25961); assay: In vitro cAMP signaling activity via the rat PTH1R (LLC-PK46_RATO_PTH1R cells); format: cell-based; settings: LLC-PK46_RATO_PTH1R cells overexpressing rat PTH1R
T2 construct: expressed in transfected cells
T2 sequence (P25961 27-591): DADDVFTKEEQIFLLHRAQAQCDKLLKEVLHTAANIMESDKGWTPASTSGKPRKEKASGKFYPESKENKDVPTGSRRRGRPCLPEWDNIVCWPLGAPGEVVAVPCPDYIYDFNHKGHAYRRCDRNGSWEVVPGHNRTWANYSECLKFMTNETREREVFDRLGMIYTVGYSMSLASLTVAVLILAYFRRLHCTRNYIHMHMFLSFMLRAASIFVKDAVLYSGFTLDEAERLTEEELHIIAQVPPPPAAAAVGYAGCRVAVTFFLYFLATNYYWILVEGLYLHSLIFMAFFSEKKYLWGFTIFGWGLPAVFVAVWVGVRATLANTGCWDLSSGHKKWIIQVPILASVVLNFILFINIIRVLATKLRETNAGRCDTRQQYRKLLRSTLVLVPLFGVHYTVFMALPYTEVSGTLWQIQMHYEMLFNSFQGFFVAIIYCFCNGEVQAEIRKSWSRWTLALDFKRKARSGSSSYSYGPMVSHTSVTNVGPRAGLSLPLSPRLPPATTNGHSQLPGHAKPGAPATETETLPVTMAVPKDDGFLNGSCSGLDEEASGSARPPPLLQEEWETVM
Source text: Instead of HKRK-B7 cells, LLC-PK46_RATO_PTH1R cells overexpressing rat PTH1R, which were established at Chugai Pharmaceutical, were used to take measurements in a similar manner to Reference Test Example 1.

TPTX rat = assay: Calcemic action in the TPTX rat model; format: in vivo; settings: TPTX rats, 30 mg/kg oral; for change of serum Ca concentration from the Pre-value (in words): up to 24 hours after administration
Description: Four-week old female Crl:CD(SD) rats were obtained from Charles River Japan (Atsugi Breeding Center), and were acclimated to standard laboratory conditions of 20-26° C. and 35-75% humidity for one week. The rats were given tap water and were fed ad libitum with standard rodent chow (CE-2) (CLEA Japan, Inc.) containing 1.1% calcium, 1.0% phosphoric acid, and 250 IU/100 g of vitamin D3.
TPTX was performed on five-week old rats. Some of the individuals were subjected to sham operation (Sham). Individuals whose serum Ca concentration was less than 8 mg/dL on four days after the operation were selected for use as TPTX rats. On five days after the operation, the rats were assigned to eight TPTX groups and one Sham group (n=5, each group) based on their body weight and serum Ca concentration measured on four days after the operation. The solvent alone was orally administered to the Sham group and the TPTX-Vehicle group at a volume of 10 mL/kg. Each test article was orally administered individually to each TPTX test article group by dissolving it in a solvent at a dose of 30 mg/10 mL/kg. The solvent composition was 10% dimethylsulfoxide (Wako Pure Chemical Industries, Ltd.), 10% Cremophor EL (Sigma-Aldrich Japan LLC), 20% hydroxypropyl-β-cyclodextrin (Nihon Shokuhin Kako Co., Ltd.), glycine (Wako Pure Chemical Industries, Ltd.); and the pH was adjusted to 10. Immediately before administration of each sample, Pre-blood collection was performed, and blood collection was carried out at 2, 6, 10, and 24 hours after administration to measure the serum Ca concentration. Each blood collection was carried out from the jugular vein under isoflurane inhalation anesthesia.
Serum Ca measurement: Serum obtained by centrifugation from the collected blood was measured by using an automatic analyzer TBA-120FR (Toshiba Medical Systems Corporation).
For statistical analysis of the animal studies, data are shown as mean±standard error (SE). Statistical analysis were performed by unpaired test of the SAS Preclinical Package (Ver. 5.00.010720, SAS Institute Japan, Tokyo, Japan).

rat hepatocyte = assay: Metabolic stability using rat hepatocyte; format: in vitro ADME
Description: Liver cells were prepared from the liver of rats (SD, female) by a collagenase perfusion method. A compound of the Reference Examples or a Comparative Example was added, and this was incubated at 37° C. for a specified amount of time, followed by addition of a reaction-stopping solution. The concentration of the parent compound at each reaction time was measured using LC/MS/MS, and inherent clearance (μL/10^6 cells/min) was calculated from the slope of the reaction time versus residual rate.
• Cell concentration: 1×10^6 cells/mL • Compound concentration: 1 μM • Medium: Williams' medium E • Reaction time: 0, 15, 30, 60, 120, and 240 minutes • Reaction-stopping solution: acetonitrile/2-propanol (4/6, v/v)

[1] = tested on: human articular chondrocytes; assay: Proteoglycan synthesis by human articular chondrocytes (35S-sulfate incorporation); format: cell-based; settings: TGF-β1 10 ng/mL, cultured for 13 days
Description: After purchase of cryopreserved human articular chondrocytes (Lot 2867, Cell Applications Inc.), the cells were thawed in a 37° C. water bath, 15 mL of Basal Medium supplemented with 10% Growth Supplement (Growth Medium, Cell Applications Inc.) was placed in a T75 culture flask (CORNING, Corning Japan K. K.) to culture the cells, and exchanged the next day with 15 mL of Growth Medium; and the cells were cultured for three days. Growth Medium was then removed, and HBSS (Cell Applications Inc.) was used to wash the chondrocyte layer. With addition of 1 mL of trypsin/EDTA solution (Cell Applications Inc.), this was left to stand at room temperature for approximately five minutes, and chondrocytes were detached from the flask. With 10 mL of Neutralization solution (Cell Applications Inc.) added, Bulker-Turk hemocytometer was used to determine the cell count, and the cells were then transferred to a 15-mL test tube for centrifugation (1,200 rpm for five minutes, Tomy Seiko Co., Ltd.) to produce a chondrocyte pellet. The supernatant was discarded, and the cells were placed in a 1.2% sodium alginate solution (25 mmol/L HEPES/150 mmol/L sodium chloride solution, pH7.0) at 2×10^6 cells/mL. This was drawn into a 1-mL syringe (Terumo Corporation) equipped with a 22G injection needle, five drops were added to each well of a 24-well plate (Corning Japan K.K.) containing 2 mL of 102 mmol/L aqueous CaCl2 solution, and this was left to stand for five minutes to form beads. Subsequently, this was washed three times with a 150 mmol/L sodium chloride solution and incubated for one day in Growth Medium, and the medium was exchanged with Basal Medium supplemented with 1% Growth supplement (Cell Applications Inc.). In this procedure, the following factors were added to the medium, and the cells were cultured for 13 days with three times of medium exchange performed per week.
On day 12 of culturing, ^35S-labeled sulfuric acid (PerkinElmer Japan Co., Ltd.) was added at 370 kBq/well, and the medium was collected 24 hours later into a test tube and stored at 4° C. To the alginate gel, a 55 mmol/L sodium citrate solution (Nacalai Tesque, Inc.; 1 mL/well) was added, and this was incubated at 37° C. for ten minutes for solation. This was collected into a microtube (Eppendorf AG) and then centrifuged (1,200 rpm, five minutes) to produce a chondrocyte pellet. […] The glass filter was transferred to a liquid scintillation counter vial, 5 mL of scintillator (Hionic-Fluor, PerkinElmer Japan Co., Ltd.) was added and radioactivity was measured on a liquid scintillation counter (TRI-CARB, PerkinElmer Japan Co., Ltd.).
The remaining 0.1 mL of the digested solution was used for DNA quantification. […]

Compound	EC20 (human PTH1R) [nM]	EC20 (rat PTH1R) [nM]	rat hepatocyte metabolic stability compared to Comparative Examples 1, 2, 3, 5, and 6 (in words) (rat hepatocyte)	achievement of the therapeutic target range of serum Ca concentration of 7.6 to 8.8 mg/dL (TPTX rat)	change of serum Ca concentration from the Pre-value (in words) (TPTX rat)	radioactivity (proteoglycan synthesis, cpm/μg DNA) relative to the vehicle control [1] [fold]
Cc1cc(N2C(=O)CNC2=O)ccc1CCS(=O)(=O)N1CCC2(CC1)N=C(c1cccc(OC(F)(F)F)c1)NC2=O [Comparative Example 1, reference compound]	1500	800	–	could not be achieved	smaller positive changes from the Pre-value	–
Cc1cc(N2C(=O)NC(=O)C23CCCC3)cc(C)c1CCS(=O)(=O)N1CCC2(CC1)N=C(c1ccc(OC(F)(F)F)cc1)NC2=O [Compound 8, 1-(3,5-dimethyl-4-(2-((4-oxo-2-(4-(trifluoromethoxy)phenyl)-1,3,8-triazaspiro[4.5]deca-1-en-8-yl)sulfonyl)ethyl)phenyl)-1,3-diazaspiro[4.4]nonane-2,4-dione]	–	400	increased	achieved the therapeutic target range	large positive changes from the Pre-value	–
TGF-β1: Positive control for proteoglycan synthesis, 10 ng/mL [reference compound]	–	–	–	–	–	10

Now from value to compound, other results behind:

EC20 (human PTH1R) [nM]	EC20 (rat PTH1R) [nM]	rat hepatocyte metabolic stability compared to Comparative Examples 1, 2, 3, 5, and 6 (in words) (rat hepatocyte)	Compound	achievement of the therapeutic target range of serum Ca concentration of 7.6 to 8.8 mg/dL (TPTX rat)	change of serum Ca concentration from the Pre-value (in words) (TPTX rat)	radioactivity (proteoglycan synthesis, cpm/μg DNA) relative to the vehicle control [1] [fold]
5000	3000	increased	Cc1cc(N2C(=O)NC(=O)C23COC3)cc(C)c1CCS(=O)(=O)N1CCC2(CC1)N=C(c1ccc(OC(F)(F)F)cc1)NC2=O [Compound 10, 5-(3,5-dimethyl-4-(2-((4-oxo-2-(4-(trifluoromethoxy)phenyl)-1,3,8-triazaspiro[4.5]deca-1-en-8-yl)sulfonyl)ethyl)phenyl)-2-oxa-5,7-diazaspiro[3.4]octane-6,8-dione]	–	–	–
1500	800	increased	Cc1cc(N2C(=O)NC(=O)C23CC3)cc(C)c1CCS(=O)(=O)N1CCC2(CC1)N=C(c1ccc(OC(F)(F)F)cc1)NC2=O [Compound 11, 4-(3,5-dimethyl-4-(2-((4-oxo-2-(4-(trifluoromethoxy)phenyl)-1,3,8-triazaspiro[4.5]deca-1-en-8-yl)sulfonyl)ethyl)phenyl)-4,6-diazaspiro[2.4]heptane-5,7-dione]	–	–	–

From US9993462B2, “Hydantoin derivative-containing pharmaceutical composition” (Chugai Seiyaku Kabushiki Kaisha, priority 2014, dated 2018)
